Test results as given in patent publication US20250108036A1, “COMPOSITIONS FOR REMOVING SENESCENT CELLS AND USES THEREOF” (LIFECEUTIX CO., LTD., priority 2021, published 2025).
Where two headings read alike, the source gives them in different places.

What was measured:
Assay type in all cases: cell-based, human
[1] = test system: foreskin cells in which senescence was induced by doxorubicin; test: CellTiter-Glo cell viability of doxorubicin-induced senescent foreskin cells (Examples 1-2, 10, 11, 13; Tables 4, 63, 65); settings: for viability at 1.1 µM / viability at 10 µM / viability at 30 µM / viability at […]: Homo sapiens, 72 h, read-out: Survival (%); for removal of senescent cells: excessive concentrations (1 or 20 mM)
Method: After 3 days, cell viability was measured using CellTiter-Glo Luminescent Cell Viability Assay (Promega) or light microscopy.

[2] = test system: HMGN1; test: HMGN1 ELISA in culture medium of foreskin cells (Examples 10, 11; Tables 62, 63, 64); settings: Homo sapiens, read-out: HMGN1
[3] = test system: HMGN1; test: HMGN1 ELISA in culture medium of A549 cancer cells (Example 12, Table 66); settings: Homo sapiens; for activity at 30 µM: test compound 30 μM
[4] = test system: A549; test: CellTiter-Glo cell viability of senescent A549 cancer cells (Example 12, Table 67); settings: for Survival (%): doxorubicin-induced senescent A549 cancer cells
[5] = 1.1 μM test compound, doxorubicin-induced senescent foreskin cells, CellTiter-Glo, 0 μM = 100
[6] = […] test compound, doxorubicin-induced senescent foreskin cells, CellTiter-Glo, 0 μM = 100
[7] = 30 μM test compound, doxorubicin-treated foreskin cells, DMSO = 100
[8] = A549, doxorubicin-induced senescent A549 cells, ELISA, DMSO = 100, read-out: HMGN1 (amount of HMGN1 secreted in the cell culture)
[9] = Homo sapiens, A549, doxorubicin-induced senescent A549 cancer cells, 1.1 μM test compound, CellTiter-Glo, read-out: Survival (%)
[10] = 10 μM test compound, doxorubicin-induced senescent foreskin cells, CellTiter-Glo, 0 μM = 100
[11] = 30 μM test compound, doxorubicin-induced senescent foreskin cells, CellTiter-Glo, 0 μM = 100
[12] = Homo sapiens, A549, doxorubicin-induced senescent A549 cancer cells, 10 μM test compound, CellTiter-Glo, read-out: Survival (%)
[13] = Homo sapiens, A549, doxorubicin-induced senescent A549 cancer cells, 30 μM test compound, CellTiter-Glo, read-out: Survival (%)
[14] = Homo sapiens, A549, read-out: Survival (%)

Row | SMILES | viability at 1.1 µM [1, 5] [%] | activity at 30 µM [2, 7] [%] | viability at 1.1 µM [4, 9] [%] | viability at 10 µM [1, 10] [%] | viability at […] [1, 6] [%] | viability at 10 µM [4, 12] [%] | further results
1 | Cc1onc(C(=O)N2CCN(C(c3ccc(Cl)cc3)c3ccc(OCc4cn(CCOCCOCCNc5cccc6c5C(=O)N(C5CCC(=O)NC5=O)C6=O)nn4)cc3)CC2)c1[N+](=O)[O-] (centres unmarked) [LX-432, 4-((2-(2-(2-(4-((4-((4-chlorophenyl)(4-(5-methyl-4-nitroisooxazol-3-carbonyl)piperazin-1-yl)methyl)phenoxy)methyl)-1H-1,2,3-triazol-1-yl)ethoxy)ethoxy)ethyl)amino)-2-(2,6-dioxopiperidin-3-yl)isoindolin-1,3-dione] | 84.2 | 304 | 97.1 | – | – | – | Survival (%) [1, 6]: 23.8%; activity at 30 µM [3, 8]: 270%
2 | CS(=O)(=O)CCNCc1ccc(-c2ccc3ncnc(Nc4ccc(OCc5cccc(F)c5)c(Cl)c4)c3c2)o1 [LX-1607, Lapatinib, reference compound] | 77 | 238 | 95.7 | 54.3 | 68 | 62.7 | viability at 30 µM [1, 11]: 32.8%; activity at 30 µM [3, 8]: 311%; viability at 30 µM [4, 13]: 15.1%
3 | CCn1c2ccccc2c2cc(NC(=O)COC(=O)C3CCC(=O)N3)ccc21 (centres unmarked) [LX-902] | 97.9 | 268 | 94.6 | 72.8 | 91.6 | 88.2 | viability at 30 µM [1, 11]: 23.9%; activity at 90 µM ([3]; A549, doxorubicin-induced senescent A549 cells, test compound 90 μM, ELISA, DMSO = 100, read-out: HMGN1 (amount of HMGN1 secreted in the cell culture)): 234%; viability at 30 µM [4, 13]: 62.7%; viability at 90 µM ([4]; Homo sapiens, A549, doxorubicin-induced senescent A549 cancer cells, 90 μM test compound, CellTiter-Glo, read-out: Survival (%)): 25.8%
4 | C=C1C(=O)O[C@H]2C1CC/C(COC(=O)/C=C/c1c(OC)cccc1OC)=C\CCC1(C)O[C@H]21 (some centres unmarked) [LX-601] | 6.1 | 293 | 13.8 | – | 3.3 | – | activity at 30 µM [3, 8]: 318%
5 | CN(C)CCn1cc(-c2ccc(F)cc2)c(-n2cccc2)n1 [LX-913] | 97.7 | – | 95.1 | 65 | 84.4 | 82.6 | Survival (%) [1, 11]: 14.5%; Survival (%) ([4]; 30 μM test compound, CellTiter-Glo): 45.7%; Survival (%) ([4]; 90 μM test compound, CellTiter-Glo): 1.9%
6 | OO [H2O2, reference compound] | – | – | – | – | – | – | removal of senescent cells [1]: hardly removed
7 | Cc1onc(C(=O)N2CCN(C(c3ccc(Cl)cc3)c3ccc(OCc4cn(CCOCCOCCNc5cccc6c5C(=O)N(C5CCC(=O)NC5=O)C6=O)nn4)cc3)CC2)c1[N+](=O)[O-] (centres unmarked) [LX-435, 4-((2-(2-(2-(4-((4-((4-chlorophenyl)(4-(5-methyl-4-nitroisooxazol-3-carbonyl)piperazin-1-yl)methyl)phenoxy)methyl)-1H-1,2,3-triazol-1-yl)ethoxy)ethoxy)ethyl)amino)-2-(2,6-dioxopiperidin-3-yl)isoindolin-1,3-dione] | – | – | – | – | – | – | Survival (%) [1, 5]: 89.1%; Survival (%) [1, 6]: 5.9%; Survival (%) ([4]; 1.1 μM test compound, CellTiter-Glo): 92.1%
8 | C=C(CN(C)C)C(=O)c1ccc2c(c1)OCO2 [LX-919] | – | – | – | – | – | – | activity at 30 µM [2]: 321%; activity at 90 µM ([3]; A549, read-out: HMGN1 (amount of HMGN1 secreted in the cell culture)): 215%
9 | CC(=O)N[C@@H](CS)C(=O)O [NAC, N-acetyl cysteine, reference compound] | – | – | – | – | – | – | removal of senescent cells [1]: hardly removed
10 | CCCC\C=C/C=C/C=C\CCCCCCCC(=O)O [LX-2707, Punicic acid] | – | – | – | – | – | – | viability at 1.1 µM [1]: 95.1%; viability at 10 µM [1]: 64.8%; viability at 30 µM [1]: 29%; viability at 1.1 µM [4, 14]: 95.1%; viability at 10 µM [4, 14]: 64.8%; viability at 30 µM [4, 14]: 29%
11 | COc1cc(OC)cc(N(CCNC(C)C)c2ccc3ncc(-c4cnn(C)c4)nc3c2)c1 [LX-1903, Erdafitinib, reference compound] | 73.4 | – | 93.1 | 22.4 | 50.3 | 12.3 | viability at 30 µM [1, 11]: 11.8%
